Measured values: PubChem BioAssay (NCI)
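Cells were grown in 96-well plates and exposed to each compound for 48 hours at five concentrations; endpoints were interpolated linearly between bracketing concentrations, or set to the highest concentration if not reached. GI50: concentration for 50% inhibition of growth. At the TGI there is no net growth.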

Legend:
Assay in all cases: inhibition of tumour cell growth, NCI panel, 48 h
PC-3 prostate = tested on: PC-3 prostate
UO-31 renal = tested on: UO-31 renal
786-0 renal = tested on: 786-0 renal
NCI-H522 lung = tested on: NCI-H522 lung
CCRF-CEM leukemia = tested on: CCRF-CEM leukemia
SNB-19 CNS = tested on: SNB-19 CNS
UACC-62 melanoma = tested on: UACC-62 melanoma
OVCAR-8 ovarian = tested on: OVCAR-8 ovarian
MCF7 breast = tested on: MCF7 breast
HS 578T breast = tested on: HS 578T breast
OVCAR-3 ovarian = tested on: OVCAR-3 ovarian
K-562 leukemia = tested on: K-562 leukemia
DU-145 prostate = tested on: DU-145 prostate
MDA-MB-435 = tested on: MDA-MB-435
SNB-75 CNS = tested on: SNB-75 CNS
SW-620 colon = tested on: SW-620 colon
HCC-2998 colon = tested on: HCC-2998 colon
SK-MEL-28 melanoma = tested on: SK-MEL-28 melanoma
OVCAR-4 ovarian = tested on: OVCAR-4 ovarian
MOLT-4 leukemia = tested on: MOLT-4 leukemia
HT29 colon = tested on: HT29 colon
ACHN renal = tested on: ACHN renal
HCT-116 colon = tested on: HCT-116 colon
MDA-MB-231 breast = tested on: MDA-MB-231 breast
NCI-H460 lung = tested on: NCI-H460 lung
HCT-15 colon = tested on: HCT-15 colon
SK-OV-3 ovarian = tested on: SK-OV-3 ovarian
T-47D breast = tested on: T-47D breast
SF-539 CNS = tested on: SF-539 CNS

## COc1cc(OC)c(S(N)(=O)=O)cc1C(=O)/C=C/c1ccc(Cl)cc1
PC-3 prostate
  TGI: 4.25 µM
UO-31 renal
  GI50: 2360 nM
  TGI: 10.3 µM
786-0 renal
  GI50: 1900 nM
  TGI: 4.32 µM
NCI-H522 lung
  GI50: 1630 nM
  TGI: 3.42 µM
CCRF-CEM leukemia
  GI50: 1520 nM
  TGI: > 100 µM
SNB-19 CNS
  GI50: 3.17 µM
  TGI: 16.7 µM
UACC-62 melanoma
  GI50: 2670 nM
  TGI: 10.6 µM
OVCAR-8 ovarian
  GI50: 3.01 µM
  TGI: 14.6 µM
MCF7 breast
  GI50: 1080 nM
  TGI: 4.11 µM
HS 578T breast
  GI50: 4.22 µM
  TGI: > 100 µM
OVCAR-3 ovarian
  GI50: 3.51 µM
  TGI: 17.6 µM
K-562 leukemia
  GI50: 1850 nM
  TGI: 13.6 µM
DU-145 prostate
  GI50: 3.44 µM
  TGI: 15.4 µM
MDA-MB-435
  GI50: 2080 nM
  TGI: 6.54 µM
SNB-75 CNS
  GI50: 1500 nM
  TGI: 3.23 µM
SW-620 colon
  GI50: 2490 nM
  TGI: 11.7 µM
HCC-2998 colon
  GI50: 2410 nM
  TGI: 6.12 µM
SK-MEL-28 melanoma
  GI50: 3.03 µM
  TGI: 9.87 µM
OVCAR-4 ovarian
  GI50: 3.54 µM
  TGI: 27 µM
MOLT-4 leukemia
  GI50: 2820 nM
  TGI: 13 µM
HT29 colon
  GI50: 2180 nM
  TGI: 4.66 µM
ACHN renal
  GI50: 3.16 µM
  TGI: 11.1 µM
HCT-116 colon
  GI50: 748 nM
  TGI: 2130 nM
MDA-MB-231 breast
  GI50: 3.92 µM
  TGI: 18.9 µM
NCI-H460 lung
  GI50: 2840 nM
  TGI: 12 µM
HCT-15 colon
  GI50: 1460 nM
  TGI: 10.2 µM
SK-OV-3 ovarian
  GI50: 2800 nM
  TGI: 8.22 µM
T-47D breast
  GI50: 2370 nM
  TGI: 12.4 µM
SF-539 CNS
  GI50: 2140 nM
  TGI: 4.82 µM
